Source: article PMC3879379, “Gold(III)-Dithiocarbamato Peptidomimetics in the Forefront of the Targeted Anticancer Therapy: Preclinical Studies against Human Breast Neoplasia” (PLoS ONE, 2014)
Where two headings read alike, the source gives them in different places.

Assays:
[1] = tested on: MDA-MB-231 xenografts; assay: Immunohistochemical p27 and TUNEL staining of tumor samples; type: in vivo, female athymic nude mice; settings: xenograft tumors, 1 mg kg^−1 d^−1
Experimental: IHC was performed using a previously reported protocol. Briefly, tumor samples were paraffin-embedded by the Pathology Core at Karmanos Cancer Institute (Detroit, MI, USA). Samples were then cut and stained for p27 or TUNEL by the BioBank at William Beaumont Hospital (Royal Oak, MI, USA). Anti-p27 (VP-P951) was from Vector Laboratories (Burlingame, CA, USA) and was used at a 1∶30 dilution followed by detection by DAKO. Samples were counterstained with DAB/Hematoxylin. TUNEL staining was performed using anti-digoxigenin and peroxidase substrate, followed by counterstaining with methyl green. In both cases, brown colored cells were considered positive.

[2] = tested on: MDA-MB-231 cells; assay: MTT assay with ROS scavenger Trolox (pretreatment or co-treatment); type: cell-based, human; settings: for reduction of IC50 by co-treatment with Trolox: MDA-MB-231, 24 h co-treatment with Trolox 100 µM
Experimental: In order to investigate whether cell death is affected by free radicals produced in situ by our compounds, cells were seeded in quadruplicate and treated with both complexes and Trolox. We first pretreated cells for 1 h with Trolox at 100 µM and after changing medium, treated cells with compounds and incubated for an additional 24 h. Alternatively, we co-treated cells for 24 h with both compounds and Trolox (100 µM), followed by MTT assay.

[3] = tested on: MDA-MB-231 cells; assay: Cellular morphology (phase contrast imaging); type: cell-based, human; settings: MDA-MB-231, 24 h
From the text: A Zeiss (Thornwood, NY) Axiovert 25 microscope was used for cellular morphology microscopic imaging with phase contrast.

[4] = biological target: T1, proteasome of MDA-MB-231 cell extract (Homo sapiens, UniProt P28072+P28074+Q99436); assay: Proteasome activity assay on MDA-MB-231 whole-cell extract; type: biochemical; settings: 2 h incubation
T1 construct: endogenous in cells; host or cells: MDA-MB-231 whole-cell extract
T1 sequence (P28074 60-263): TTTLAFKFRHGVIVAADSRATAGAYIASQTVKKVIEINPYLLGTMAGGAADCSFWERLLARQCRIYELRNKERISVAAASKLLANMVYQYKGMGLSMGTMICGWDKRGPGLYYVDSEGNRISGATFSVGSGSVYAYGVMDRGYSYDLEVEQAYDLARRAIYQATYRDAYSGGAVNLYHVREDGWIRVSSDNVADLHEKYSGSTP
T1 sequence (P28072 1-239): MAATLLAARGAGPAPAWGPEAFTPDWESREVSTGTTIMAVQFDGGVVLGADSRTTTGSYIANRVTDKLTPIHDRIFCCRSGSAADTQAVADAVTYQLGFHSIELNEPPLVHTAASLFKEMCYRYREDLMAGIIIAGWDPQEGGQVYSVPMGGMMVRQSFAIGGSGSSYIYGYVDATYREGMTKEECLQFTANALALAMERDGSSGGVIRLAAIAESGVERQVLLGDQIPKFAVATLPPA
T1 sequence (Q99436 44-277): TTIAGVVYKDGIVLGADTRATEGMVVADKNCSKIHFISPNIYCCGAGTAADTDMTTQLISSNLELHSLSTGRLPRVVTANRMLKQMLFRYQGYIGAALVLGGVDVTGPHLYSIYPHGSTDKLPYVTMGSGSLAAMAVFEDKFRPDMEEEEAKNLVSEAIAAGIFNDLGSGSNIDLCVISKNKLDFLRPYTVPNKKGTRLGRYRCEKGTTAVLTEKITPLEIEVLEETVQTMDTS
Experimental: Likewise, MDA-MB-231 whole-cell extract (10 µg/well) was incubated in quadruplicate with each complex and each fluorogenic substrate in 100 µL of assay buffer [20 mM Tris-HCl (pH 7.5)]. Fluorescence data were acquired after 1 hour and 2 hours incubation at 37°C. The whole-cell extract was prepared as described elsewhere.

[5] = biological target: T2, Purified human 20S proteasome (Homo sapiens, UniProt P28072+P28074+Q99436); assay: Proteasome activity assay on purified 20S proteasome (fluorogenic substrates); type: biochemical; settings: 2 h incubation
T2 construct: purchased Boston Biochem (Boston, MA)
Experimental: Purified human 20S proteasome (0.5 nM) was incubated in triplicate with three different proteasomal fluorogenic substrates (20 µM) and each compound (dissolved in DMSO) at various concentrations ranging from 0.1 to 10 µM (or an equivalent volume of solvent DMSO as a control) in 100 µL of assay buffer [20 mM Tris-HCl (pH 7.5)].

[6] = tested on: MDA-MB-231 cells; assay: Annexin-V FITC/PI apoptosis assay (flow cytometry); type: cell-based, human; settings: MDA-MB-231, 20 µM; for cells in early stage apoptosis: 16 or 24 h (time not specified)
Experimental: Apoptosis indexes were measured using the Annexin-V fluorescein isothiocyanate (FITC) apoptosis detection kit I from by BD Pharmingen. MDA-MB-231 cells were grown to around 75% confluence, treated with gold-based complexes (20 µM) or solvent as a control for 16 or 24 h, harvested by means of a scraper and centrifugation. Cell pellets were washed twice with ice cold PBS and cells were then resuspended in 1× binding buffer at a concentration of 1•10^6 cells/mL. 100 µL of the suspension was then transferred to a 5 mL flow cytometry tube and 5 µL FITC Annexin V and 5 µL PI for double stained samples (either 5 µL of FITC Annexin V or 5 µL of PI for controls) were added. Mixtures were gently vortexed and incubated for 15 min at RT in the dark followed by addition of 400 µL 1× binding buffer to each tube. Then, analysis by flow cytometry occurred within 1 h at the Microscopy, Imaging and Cytometry Resources (MICR) Core at the Karmanos Cancer Institute, Wayne State University. Data (Figure 3) are presented as density plots of Annexin-V (x-axis) and propidium iodide (PI, y-axis) stainings. Unstained cells, cells stained with either PI or FITC Annexin-V only, and untreated cells stained with both PI and Annexin-V were used to set up compensation and quadrants. The excitation wavelength was 488 nm and the detection wavelengths were 530±15 and 620±21 nm for Annexin V and PI, respectively. Cells staining negative for both markers were considered viable since Annexin V and PI are both cell membrane impermeable while cells staining positive for both markers were considered in late apoptosis. Cells staining positive for Annexin only were considered in early apoptosis whereas cells staining positive for PI only were considered dead by a necrotic pathway. Percentages of viable, apoptotic, and necrotic cells are reported in the corner of each quadrant (Figure 3).

[7] = biological target: T3, proteasomal CT-like activity (Homo sapiens, UniProt P28074); assay: Proteasomal CT-like activity in xenograft tumor tissue; type: in vivo, female athymic nude mice; settings: xenograft tumors, 1 mg kg^−1 d^−1, after 27 days of treatment
T3 construct: from tissue; host or cells: MDA-MB-231 xenograft tumour tissue from female athymic nude mice
T3 sequence (P28074 60-263): T1 sequence (P28074 60-263)
Experimental: (§1) Seven-week-old female athymic nude mice were purchased from Harlan Laboratories (Indianapolis, USA) and housed in accordance with protocols approved by the Institutional Laboratory Animal Care and Use Committee of Wayne State University. Human breast cancer MDA-MB-231 cells suspended in 0.1 mL of serum-free DMEM/F12 cell growth medium were inoculated subcutaneously (s.c.) into the right flank of each mouse. When tumors reached a volume of around 115 mm^3, the mice were randomly allocated into three groups (seven mice per group) and treated five days a week by s.c. injection of either vehicle [1∶1∶1 v/v PBS, DMSO, Cremophore/ethanol (1∶4)] or medium containing 1.0 mg/kg of AuD6 or AuD8. Tumor length (L) and width (W) were measured every other day using a caliper, and tumor volumes were evaluated according to the standard formula (π ⋅ L ⋅ W^2)/6. Mouse weights were monitored weekly. Four mice per group were sacrificed after 27 days of treatment, or when tumors reached ∼1,800 mm^3, and the remaining three mice per group were sacrificed after 13 days to observe any early effects of treatments. The tumors were collected and weighed. Tumor tissues were used to measure proteasome inhibition and caspase-3 activation by enzymatic activity assays and by Western blot analysis.

[8] = tested on: MDA-MB-231 cells; assay: MTT cell proliferation assay; type: cell-based, human; settings: for IC50: read-out: IC50 (MTT, inhibition of cell proliferation)
Experimental: Human breast cancer MDA-MB-231 cells were obtained from American Type Culture Collection (Manassas, VA) and grown in DMEM/F12 supplemented with 10% fetal bovine serum, 1 mM sodium pyruvate, 10 mM HEPES, 100 U/mL penicillin and 100 µg/mL streptomycin. Cells were grown in a humidified incubator with 5% CO2 at 37°C. Cells were seeded in octuplicate in 96-well plates and grown to 70%–80% confluence, followed by treatment with DMSO (control) or each compound (dissolved in DMSO) in fresh medium at the indicated concentrations. After 24 or 72 hours incubation at 37°C, inhibition of cell proliferation was measured by MTT assay, as previously described. The cytotoxicity of the compounds was quantified as the percentage of cells surviving relative to untreated cells. Four MTT tests for each compound were performed in order to evaluate the corresponding IC50 values.

[9] = tested on: p27; assay: Western blot of p27 in treated cells; type: cell-based, human; settings: MDA-MB-231, 24 h
Experimental: MDA-MB-231 cells were grown to around 75% confluence, treated with gold-based complexes or solvent as a control, harvested, and lysed. Cell lysates (30 µg/lane) were separated by SDS-PAGE and transferred to a nitrocellulose membrane. After blocking of non-specific binding (5% non-fat dry milk in Tris-Buffered Saline with Tween 20-TBST), membranes were incubated overnight at 4°C with primary antibodies, followed by washing with TBST and incubation for 2 h with secondary antibodies. Bands of interest were visualized using HyGLO Chemiluminescent HRP Antibody detection reagent, HyBlot Chemiluminescence films (Denville Scientific Inc.; Metuchen, NJ) and a HOPE Micro-MAX film processor.

[10] = tested on: MDA-MB-231 xenografts; assay: Human breast tumor xenograft growth; type: in vivo, female athymic nude mice; settings: 1.0 mg kg^−1 d^−1 s.c.
Experimental: as §1, with “analysis. […]” for “analysis.”

[11] = read-out: IC50 Chymotrypsin-like activity
[12] = read-out: IC50 PGPH-like activity
[13] = read-out: IC50 Trypsin-like activity

reduction of IC50 by co-treatment with Trolox [2]	IC50 [4, 11]	IC50 [4, 12]	IC50 [4, 13]	IC50 [5, 11]	IC50 [5, 12]	IC50 [5, 13]	inhibition of the proteasomal CT-like pocket in tumor tissue [7]	SMILES	TUNEL positive (staining of tumor) [1]	p27 positive (immunohistochemical staining of tumor) [1]	concentration at which apoptotic morphological changes were observed [3]	cells in early stage apoptosis [6]	apoptotic cells at late stage (upper right quadrant) ([6]; 24 h)	also measured
approximately 3 fold	3300 ± 400 nM	2300 ± 800 nM	3000 ± 900 nM	420 ± 30 nM	490 ± 90 nM	510 ± 70 nM	14%	C[N+](CC(=O)NCC(=O)OC(C)(C)C)=C1[S][Au-]([Br])([Br])[S]1 [AuD6, [Au^IIIBr2(dtc-Sar-AA-O(t-Bu))]]	~75%	~20%	20 µM	7–9%	49%	IC50 ([8]; MDA-MB-231, 72 h treatment): 13000 ± 1000 nM
very little effect	2900 ± 600 nM	4500 ± 900 nM	5700 ± 100 nM	290 ± 70 nM	540 ± 80 nM	610 ± 20 nM	33%	C[N+](CC(=O)NC(C)(C)C(=O)OC(C)(C)C)=C1[S][Au-]([Br])([Br])[S]1 [AuD8, [Au^IIIBr2(dtc-Sar-AA-O(t-Bu))]]	~30%	~95%	10 µM	7–9%	74.1%	concentration inducing p27 accumulation [9]: below 1 µM; inhibition of tumor growth compared to control ([10]; 27 days, p<0.05): 53%; tumor volume at end of treatment ([10]; day 27): 849±79 mm^3; apoptotic cells at late stage (upper right quadrant) ([6]; 16 h): 62.9%
–	–	–	–	–	–	–	–	Cc1c(C)c2c(c(C)c1O)CCC(C)(C(=O)O)O2 (centres unmarked) [Trolox, reference compound]	–	–	–	–	–	inhibition at 100 µM ([2]; Homo sapiens, MDA-MB-231, Trolox 100 µM, 24 h treatment, read-out: inhibition of tumor cell growth by Trolox alone): ~25%
–	–	–	–	–	–	–	–	N.N.[Cl][Pt][Cl] [cisplatin, cis-diammineplatinum(II) dichloride]	–	–	–	–	–	growth-inhibitory effect ([8]; MDA-MB-231, 100 µM, 24 h treatment): around 40%; IC50 (MTT, inhibition of cell proliferation) ([8]; MDA-MB-231, 24 h treatment): not reached; IC50 ([8]; MDA-MB-231, 24 h treatment): > 100000 nM
